In patent EP0394982A2, “Anthracycline derivatives with cytostatic activity” (BEHRINGWERKE Aktiengesellschaft, priority 1989, dated 1990):
Converted amounts (≈) assume the structure as drawn. Read-outs that look alike come from different tables or passages of the source.

Test system: L1210 Leukämiezellen
Experiment: Colony formation of L1210 leukemia cells in soft agar (cytotoxicity in vitro)
Format: cell-based, Maus
Details: Mus musculus, colonies > 60 µm counted
Description: Die zytostatische Wirksamkeit der erfindungsgemäßen Verbindungen wurde anhand von L1210 Leukämiezellen der Maus getestet. Hierzu wurde die Koloniebildung von L1210 Leukämiezellen in Agarplatten herangezogen. Diese Methode dient zum Nachweis des Einflusses der Testsubstanzen auf das Wachstumsverhalten der Zellen über 1 Stunde oder über mehrere Generationen. Bei einer Zellzykluszeit von 10-12 Stunden werden dabei in der Testzeit von 7 Tagen etwa 14 aufeinanderfolgende Generationen beobachtet. Die erfindungsgemäßen zytostatisch wirksamen Substanzen bewirken in diesem Test eine Reduktion der zu beobachtenden Koloniezahl gegenüber einer unbehandelten Kontrollprobe.
Verfahrensweise zur Ermittlung der Koloniebildung von L1210 Leukämiezellen in Soft-Agar
500 Leukämiezellen pro Platte wurden mit unterschiedlichen Konzentrationen der Testsubstanz 1 Stunde bei 37°C inkubiert. Anschließend wurden die Zellen zweimal mit McCoy5A-Medium gewaschen und schließlich in Petrischalen nach Zugabe von 0,3 % Agar ausgegossen. Kontrollen wurden lediglich mit frischem Medium inkubiert. Anstelle der einstündigen Inkubation wurden in manchen Fällen unterschiedliche Konzentrationen und Testsubstanzen der oberen Agarschicht zugemischt, um so eine kontinuierliche Exposition der Zellen über die gesamte Inkubationszeit zu erreichen. Nach Erstarren des Agars wurden die Platten im Brutschrank 7 Tage bei 37°C inkubiert (5 Vol.-% CO₂, 95 % relative Luftfeuchtigkeit). Anschließend wurde die Zahl der entstandenen Kolonien mit einem Durchmesser von mehr als 60 µm gezählt. Die Ergebnisse wurden angegeben als Koloniezahl in behandelten Agarplatten in Prozent der unbehandelten Kontrolle. Aus der so erhaltenen Dosiswirkungskurve wurde die IC₅₀ als Maß für die Wirksamkeit der Substanz ermittelt. Die Ergebnisse für die hier beschriebenen Verbindungen im Vergleich zu Adriamycin sind in Tabelle 1 zusammengefaßt.

[1] = L1210, 168 h, continuous exposure (substance mixed into upper agar layer), 7 days at 37°C, read-out: Dauerinkubation IC50
[2] = L1210, 1 h incubation at 37°C, cells washed, then 7 days in agar, read-out: 1h-Inkubation IC50

CC[C@@]1(O)C[C@H](O[C@H]2C[C@H](N(C)CC(=O)NCCc3ccc(O)cc3)[C@H](O)[C@H](C)O2)c2c(O)c3c(c(O)c2[C@H]1O)C(=O)c1cccc(O)c1C3=O [Beispiel 6, 7-O-(3′-N-Methyl-3′-N-tyraminocarbonylmethyl-α-L-daunosaminyl)-β-rhodomycinon]
IC50 [1]: 0.41 µg/mL (≈ 0.58 µM)
IC50 [2]: 1.3 µg/mL (≈ 1.84 µM)

CC[C@@]1(O)C[C@H](O[C@H]2C[C@H](N(C)CC(=O)NCCc3c[nH]c4ccccc34)[C@H](O)[C@H](C)O2)c2c(O)c3c(c(O)c2[C@H]1O)C(=O)c1cccc(O)c1C3=O [Beispiel 7, 7-O-(3′-N-Methyl-3′-N-tryptaminocarbonylmethyl-α-L-daunosaminyl)-β-rhodomycinon]
IC50 [1]: 0.36 µg/mL (≈ 0.493 µM)
IC50 [2]: 1.2 µg/mL (≈ 1.64 µM)

CC[C@@]1(O)C[C@H](O[C@H]2C[C@H](N(C)CC(=O)NCCc3c[nH]cn3)[C@H](O)[C@H](C)O2)c2c(O)c3c(c(O)c2[C@H]1O)C(=O)c1cccc(O)c1C3=O [Beispiel 5, 7-O-(3′-N-Histaminocarbonylmethyl-3′-N-methyl-α-L-daunosaminyl)-β-rhodomycinon]
IC50 [1]: 0.31 µg/mL (≈ 0.455 µM)
IC50 [2]: 1 µg/mL (≈ 1.47 µM)

CC[C@@]1(O)C[C@H](O[C@H]2C[C@H](N(C)CC(=O)NCCN)[C@H](O)[C@H](C)O2)c2c(O)c3c(c(O)c2[C@H]1O)C(=O)c1cccc(O)c1C3=O [Beispiel 2, 7-0-(3′-N-Ethylendiaminocarbonylmethyl-3′-N-methyl-α-L-daunosaminyl)-β-rhodomycinon]
IC50 [1]: 0.35 µg/mL (≈ 0.556 µM)
IC50 [2]: 1 µg/mL (≈ 1.59 µM)

CC[C@@]1(O)C[C@H](O[C@H]2C[C@H](N(C)CC(=O)NCCN(C)C)[C@H](O)[C@H](C)O2)c2c(O)c3c(c(O)c2[C@H]1O)C(=O)c1cccc(O)c1C3=O [Beispiel 3]
IC50 [1]: 0.12 µg/mL (≈ 0.182 µM)
IC50 [2]: 0.26 µg/mL (≈ 0.395 µM)

CC[C@@]1(O)C[C@H](O[C@H]2C[C@H](N(C)CC(=O)NCCCCN)[C@H](O)[C@H](C)O2)c2c(O)c3c(c(O)c2[C@H]1O)C(=O)c1cccc(O)c1C3=O [Beispiel 4]
IC50 [1]: 0.35 µg/mL (≈ 0.532 µM)
IC50 [2]: 1.3 µg/mL (≈ 1.98 µM)

CC[C@@]1(O)C[C@H](O[C@H]2C[C@H](N(C)CC(=O)NN)[C@H](O)[C@H](C)O2)c2c(O)c3c(c(O)c2[C@H]1O)C(=O)c1cccc(O)c1C3=O [Beispiel 1, 7-0-(3′-N-Hydrazinocarbonylmethyl-3′-N-methyl-α-L-daunosaminyl)-β-rhodomycinon]
IC50 [1]: 0.32 µg/mL (≈ 0.532 µM)
IC50 [2]: 0.21 µg/mL (≈ 0.349 µM)
